Experimental data reported in patent US20250006331A1, “QUANTITATIVE SYSTEMS PHARMACOLOGY METHODS FOR IDENTIFYING THERAPEUTICS FOR DISEASE STATES” (UNIVERSITY OF PITTSBURGH-OF THE COMMONWEALTH SYSTEM OF …, priority 2021, published 2025).
“Also recorded” adds a separate entry of the source.

How the values were obtained:
[1] = tested on: Pro-collagen 1A1 and TIMP-1; experiment: LAMPS secretion of pro-fibrotic markers (ELISA); format: cell-based, human; conditions: for Effect on secreted pro-fibrotic markers / fibrosis: LAMPS NAFLD/MAFLD model, summary statement; for Decrease in secretion of the pro-fibrotic marker Pro-collagen 1a1: 30 μM PGZ vs vehicle, decrease not statistically significant; for Decrease in secretion of the pro-fibrotic marker Pro-Col 1a1: 10 μM TGZ vs vehicle, decrease is not significant
Text: (§1) LAMPS model assembly and maintenance. […] The experimental setup workflow is described in the Supplement.

LAMPS models [2] = experiment: LAMPS cytotoxicity (lactate dehydrogenase secretion); conditions: for Lactate dehydrogenase curves: 10-day time course, vs vehicle control, 10 μM OCA, 30 μM PGZ, 10 μM TGZ
Protocol: LAMPS model assembly and maintenance. LAMPS studies were carried out as previously described (Vernetti, Senutovitch et al. 2016, Lee-Montiel, George et al. 2017, Miedel, Gavlock et al. 2019, Mohammed 2021) with modification to include the use of human primary liver sinusoidal endothelial cells (LSECs). A single chamber commercial microfluidic device (HAR-V single channel device, SCC-001, Nortis, Inc. Seattle, WA) was used for LAMPS studies. For all steps involving injection of media and/or cell suspensions into LAMPS devices, 100-150 μl per device was used to ensure complete filling of fluidic pathways, chamber and bubble traps. The percentages of hepatocytes, THP-1, LSEC, and LX-2 cells are consistent with the scaling used in our previously published models (Vernetti, Senutovitch et al. 2016, Lee-Montiel, George et al. 2017, Miedel, Gavlock et al. 2019, Mohammed 2021). For the studies described here, LAMPS models were set up and maintained for 10 days under flow.
Secretome measurements. Efflux media from LAMPS devices was collected on days 2,4,6,8, and 10 to measure albumin, blood urea nitrogen, and lactate dehydrogenase. […] The CytoTox 96 for lactate dehydrogenase (LDH) and the urea nitrogen test were purchased from Promega (Madison, WI) and Stanbio Laboratory (Boerne, TX), respectively. […] All efflux measurements were carried out according to the manufacturer's protocol and obtained as described previously (Vernetti, Senutovitch et al. 2016, Lee-Montiel, George et al. 2017, Li, George et al. 2018, Miedel, Gavlock et al. 2019).
LAMPS models were maintained for 10 days in MAFLD disease media containing either the indicated concentration of drug or DMSO vehicle control. We determined drug concentrations to test in LAMPS models guided by the CMap database and by cytotoxicity testing in primary hepatocytes (Table S8). […] We examined a panel of metrics to monitor disease-specific phenotypes including model functionality (albumin and blood urea nitrogen production) and cytotoxicity (lactate dehydrogenase secretion), hepatocellular steatosis (LipidTOX Lipid Stain from ThermoFisher Scientific labeling), stellate cell activation (α-smooth muscle actin staining), and the production of a panel of pro-inflammatory cytokines and fibrotic markers (Pro-collagen 1A1 and TIMP-1) (Mohammed et. al, 2021).

[3] = tested on: LX-2 human stellate cells; experiment: LAMPS stellate cell activation (α-smooth muscle actin staining); format: cell-based; conditions: for Effect on stellate cell activation: LAMPS NAFLD/MAFLD model, summary statement; for Stellate cell activation (α-SMA intensity): LAMPS, 10 μM OCA, 30 μM PGZ
Text: (§2) LAMPS cell sources and cell culture. A single lot of selected cryopreserved primary human hepatocytes (lot #Hu1960) with >90% viability and re-plating efficiency post-thaw were purchased from ThermoFisher. A single lot of selected cryopreserved primary human liver sinusoidal endothelial cells (LSEC; lot #: HL160019) were purchased from LifeNet Health (formerly Samsara Sciences; Virginia Beach, VA.). The human monoblast cell line, THP-1, used to generate Kupffer cells, was purchased from ATCC (Rockville, MD). LX-2 human stellate cells were acquired from Sigma Millipore (Billerica, MA). The LX-2 cell is an immortalized human hepatic stellate cell that constitutively expresses key receptors regulating hepatic fibrosis, and proliferates in response to PDGF, a prominent mitogen contributing to liver fibrosis (Bonner 2004, Xu, Hui et al. 2005).
as §1
Stellate cell activation. Staining for LX-2 cell expression of α-smooth muscle actin (α-SMA) was performed after completion of the experimental time course (Day 10) in LAMPS models as previously described (Vernetti, Senutovitch et al. 2016, Li, George et al. 2018) and are outlined in detail in the Supplemental Methods section.

LAMPS models [4] = experiment: LAMPS model functionality (albumin and blood urea nitrogen secretion); format: cell-based, human; conditions: 10-day time course, vs vehicle control, 10 μM OCA, 30 μM PGZ; for Albumin curves / Blood urea nitrogen curves: NAFLD disease media, 10 μM TGZ, Vorinostat 1.7 or 5 μM, AS601245 1 or 3 μM, pioglitazone + vorinostat combination
Text: as §2
Primary human hepatocytes were thawed following the manufacturer's recommendations using Cryopreserved Hepatocyte Recovery Medium (CHRM; ThermoFisher) and were initially cultured in hepatocyte plating media (HPM) containing Williams E medium (11.5 mM glucose) supplemented with 5% fetal bovine serum, […] penicillin-streptomycin and 2 mM L-glutamine. For perfusion in LAMPS models, cells were maintained in normal fasting (NF), early metabolic syndrome (EMS), or late metabolic syndrome (LMS) media. The description of components of these media types is detailed in the Metabolic Syndrome Media section below. LSECs were thawed and expanded in endothelial cell basal medium-2 (EBM-2) supplemented with the endothelial growth medium-2 (EGM-2) supplement pack (Lonza; Alpharetta, GA; #CC-4176). THP-1 cells were cultured in suspension in RPMI-1640 medium (ThermoFisher) supplemented with 10% fetal bovine serum (FBS; ThermoFisher), 100 μg/mL penicillin streptomycin (ThermoFisher), and 2 mM L-glutamine (ThermoFisher). THP-1 cells were differentiated into mature macrophages by treatment with 200 ng/mL phorbol myristate acetate (Sigma Aldrich) for 48 h. Differentiated THP-1 monocytes release human tumor necrosis factor alpha (TNF-α) and interleukin-6 (IL-6) in response to LPS treatment, a condition reported to induce the immune mediated liver toxic response in in vitro models (Jang, Choi et al. 2006, Kostadinova, Boess et al. 2013). LX-2 cells were cultured in Dulbecco's Modified Eagle Medium (DMEM; ThermoFisher) supplemented with 2% FBS and 100 μg/mL penicillin streptomycin.
Metabolic syndrome media. We developed medias that were designed to create disease progression from Normal Fasting (NF) to early metabolic syndrome (EMS or NAFLD) and late metabolic syndrome (LMS or T2D) over a two-week period in the LAMPS platform (Mohammed 2021). For the studies described here, we used both NF and EMS media formulations. […] We then adjusted these components to reflect the pathophysiological conditions as described below (Alford, Bloodm et al. 1977, Kuhl 1977, Kim, Kim et al. 2000, Chitturi, Abeygunasekera et al. 2002, de Almeida, Cortez-Pinto et al. 2002, Valencia, Marin et al. 2002, Edgerton, Ramnanan et al. 2009, Winnick, An et al. 2009).
Early Metabolic Syndrome (EMS) Media: Early metabolic syndrome (EMS) medium was derived from the NF media formulation with the following modifications: 11.5 mM glucose, 10 nM insulin, […] glucagon, 200 μM sodium oleate and 100 μM palmitic acid (Sigma).
as §1

[5] = tested on: TNF-α, IL-6, IL-8, IL-1α and MCP-1; experiment: LAMPS production of pro-inflammatory cytokines; format: cell-based, human; conditions: for Inflammatory cytokine production: LAMPS
Text: as §1

LAMPS models [6] = experiment: LAMPS hepatocellular steatosis (LipidTOX labeling); format: cell-based, human; conditions: for Effect on steatosis: LAMPS NAFLD/MAFLD model, summary statement; for Hepatocellular steatosis / lipid accumulation (LipidTOX intensity): NAFLD disease media, day 10, vs vehicle control, 10 μM TGZ, Vorinostat 1.7 or 5 μM, AS601245 1 or 3 μM, pioglitazone + vorinostat combination
Protocol: as §1
Steatosis measurements. Steatosis measurements were performed using HCS LipidTOX Deep Red Neutral Lipid Stain (ThermoFisher) after completion of the experimental time course (Day 10) in LAMPS models as previously described (Lee-Montiel, George et al. 2017) and are outlined in detail in the Supplemental Methods section.

[7] = observational trial of adult males [Vega, G. L., et al. 2008]; cited from earlier work
[8] = LAMPS, EMS media, 10 days, 10 μM OCA
[9] = LAMPS, NAFLD disease media, 10 days, 10 μM OCA, 30 μM PGZ
[10] = LAMPS, EMS media, 10 days, vs vehicle, 10 μM OCA, 30 μM PGZ, vorinostat 1.7 or 5 μM, pioglitazone 30 μM + vorinostat 1.7 or 5 μM
[11] = LAMPS, NAFLD disease media, 10 days, vs vehicle, 10 μM OCA, 30 μM PGZ, 10 μM TGZ, Vorinostat 1.7 or 5 μM, pioglitazone + vorinostat combination
[12] = EMS media, day 10, vs vehicle, vorinostat 1.7 or 5 μM, pioglitazone 30 μM + vorinostat 1.7 or 5 μM
[13] = NAFLD disease media, day 10, vs vehicle control, 10 μM TGZ, Vorinostat 1.7 or 5 μM, pioglitazone + vorinostat combination
[14] = EMS media, vorinostat 1.7 or 5 μM, pioglitazone 30 μM + vorinostat 1.7 or 5 μM
[15] = NAFLD disease media, day 10, vs vehicle control, Vorinostat 1.7 or 5 μM, AS601245 1 or 3 μM, pioglitazone + vorinostat combination

## CCc1ccc(CCOc2ccc(CC3SC(=O)NC3=O)cc2)nc1 (stereo not shown) [PGZ, pioglitazone]
[1]
  Effect on secreted pro-fibrotic markers / fibrosis: no significant effect
[1]; [8]
  Decrease in secretion of the pro-fibrotic marker Pro-collagen 1a1: ~20%
[1]; [9]
  Decrease in secretion of the pro-fibrotic marker Pro-Col 1a1: ~20%
LAMPS models [2]; NAFLD disease media
  Lactate dehydrogenase curves: no significant differences

## CC[C@H]1[C@@H](O)[C@@H]2[C@H](CC[C@]3(C)[C@@H]([C@H](C)CCC(=O)O)CC[C@@H]23)[C@@]2(C)CC[C@@H](O)C[C@@H]12 [OCA, obeticholic acid]
[1]
  Effect on secreted pro-fibrotic markers / fibrosis: no significant effect
[1]; [8]
  Decrease in secretion of the pro-fibrotic marker Pro-collagen 1a1: ~20%
[1]; [9]
  Decrease in secretion of the pro-fibrotic marker Pro-Col 1a1: ~20%
LAMPS models [2]; NAFLD disease media
  Lactate dehydrogenase curves: no significant differences

## O=C(CCCCCCC(=O)Nc1ccccc1)NO [Vorinostat, suberoylanilide hydroxamic acid]
[1]
  Effect on secreted pro-fibrotic markers / fibrosis: robustly mitigated; also recorded: robustly reduced; also recorded: significant inhibition
[1]; [10]
  Secreted levels / production of TIMP-1: significant decrease
  Secreted levels / production of the pro-fibrotic marker Pro-Col 1a1: significant decrease
[1]; [11]
  Secreted levels / production of TIMP-1: significant decrease
[1]; LAMPS, NAFLD disease media, day 10, vs vehicle control, Vorinostat 1.7 or 5 μM, pioglitazone + vorinostat combination
  Production of the pro-fibrotic marker pro-collagen 1a1: significant decrease
[3]
  Effect on stellate cell activation: robustly reduced
[3]; [12]
  Stellate cell activation (α-SMA intensity): significant decrease
[3]; [13]
  Stellate cell activation (α-SMA intensity): significant decrease
LAMPS models [4]; [14]
  Albumin secretion profiles: no significant differences
  Blood urea nitrogen secretion profiles: no significant differences
LAMPS models [4]
  Albumin curves: no significant differences
  Blood urea nitrogen curves: no significant differences
[5]; LAMPS NAFLD/MAFLD model, summary statement
  Effect on inflammatory markers / inflammation: robustly mitigated; also recorded: robustly reduced; also recorded: significant inhibition
[5]; [12]
  Inflammatory cytokine production: significant decrease
[5]; [15]
  Inflammatory cytokine production: significant decrease
LAMPS models [6]
  Effect on steatosis: without an impact; also recorded: without significant amelioration; also recorded: without an appreciable effect
LAMPS models [6]; LAMPS, EMS media, day 10, vs vehicle, 10 μM OCA, 30 μM PGZ, vorinostat 1.7 or 5 μM, pioglitazone 30 μM + vorinostat 1.7 or 5 μM
  Steatosis / lipid accumulation (LipidTOX intensity): no significant effect
LAMPS models [6]; LAMPS, 10 μM OCA, 30 μM PGZ
  Hepatocellular steatosis / lipid accumulation (LipidTOX intensity): no effect
LAMPS models [2]; EMS media, days 8 and 10, 5 μM vorinostat vs vehicle control
  LDH secretion: significant decrease
LAMPS models [2]; NAFLD disease media, days 8 and 10, 5 μM Vorinostat vs vehicle control
  LDH secretion: significant decrease

## C[C@]12COC(=O)C[C@@H]1CC[C@@H]1[C@@H]2CC[C@@]2(C)[C@H]1CC[C@]2(C)O [oxandrolone]
[7]
  Hepatic ketogenesis: promoted hepatic ketogenesis

## N#CC(c1ccnc(NCCc2cccnc2)n1)c1nc2ccccc2s1 (stereo not shown) [AS601245]
LAMPS models [4]
  Albumin curves: no significant differences
  Blood urea nitrogen curves: no significant differences
[5]; [15]
  Inflammatory cytokine production: dose-dependent increase
LAMPS models [6]; LAMPS, 10 μM OCA, 30 μM PGZ
  Hepatocellular steatosis / lipid accumulation (LipidTOX intensity): no effect

## Cc1c(C)c2c(c(C)c1O)CCC(C)(COc1ccc(CC3SC(=O)NC3=O)cc1)O2 (stereo not shown) [TGZ, troglitazone]
[1]
  Effect on secreted pro-fibrotic markers / fibrosis: reduced steatosis but not fibrosis markers; also recorded: no significant effect
[1]; [11]
  Secreted levels / production of TIMP-1: no significant change
[1]; [9]
  Decrease in secretion of the pro-fibrotic marker Pro-Col 1a1: ~20%
[3]
  Effect on stellate cell activation: reduced
[3]; [13]
  Stellate cell activation (α-SMA intensity): significant decrease
LAMPS models [4]
  Albumin curves: no significant differences
  Blood urea nitrogen curves: no significant differences
LAMPS models [6]
  Effect on steatosis: reduced
LAMPS models [6]; LAMPS, 10 μM OCA, 30 μM PGZ
  Hepatocellular steatosis / lipid accumulation (LipidTOX intensity): significant decrease
LAMPS models [2]; NAFLD disease media
  Lactate dehydrogenase curves: no significant differences
